Measurements from patent publication US20080249042A1, “All-Trans-Retinol: All-Trans-13,14-Dihydroretinol Saturase and Methods of Its Use” (UNIVERSITY OF WASHINGTON, priority 2004, published 2008).

Columns and labels:
[1] = Liver retinoids of Lrat-/- mice 3 h after gavage with all-trans-DROL; assay type: in vivo, mouse; details: 3 h post-gavage
Excerpt: Metabolism of Retinoids in Vivo. All animal experiments employed procedures approved by the University of Washington and conformed to recommendations of the American Veterinary Medical Association Panel on Euthanasia and recommendations of the Association of Research for Vision and Ophthalmology. Animals were maintained on a 12-h light and 12-h dark cycle. All manipulations were done under dim red or infrared light (>560 nm). Most experiments used 6-12-week-old mice. Lrat−/− mice were genotyped as described previously. Batten, et al. J. Biol. Chem. 279:10422-10432, 2004. Animals were maintained on a control chow diet up to 1 h prior to oral gavage. The appropriate amount of all-trans-ROL palmitate, all-trans-DROL, or all-trans-RA was dissolved in vegetable oil and administered by oral gavage 3 h prior to analysis.
Analysis of Retinoids. Liver (1 g) from retinoid gavaged or naive mice was homogenized in 2 ml of 137 mM NaCl, 2.7 mM KCl, and 10 mM sodium phosphate (pH 7.4) for 30 s using a Polytron homogenizer. 10 μl of 5 M NaOH was added to 3 ml of the ethanolic extract, and the nonpolar retinoids were extracted using 5 ml of hexane. The extraction was repeated, and the organic phases were combined, dried under vacuum, resuspended in hexane, and examined by normal phase HPLC using a normal phase column (Beckman Ultrasphere Si 5μ, 4.6×250 mm). […] The HPLC elution conditions were […], 100% buffer A for 40 min, 100% buffer B for 10 min, and 10 min equilibration in buffer A. The elution profiles of RA and DRA were monitored using an online diode array detector set at 350 and 290 nm, respectively. […] The measured area of absorbance was converted to picomoles based on a calibration of the HPLC columns using a known amount of all-trans-RA or all-trans-ROL (Sigma) and all-trans-DROL or all-trans-DRA (synthetic standards). The extraction efficiency was monitored by spiking a tissue sample with [^3H]RA (PerkinElmer Life Sciences) and monitoring the radioactivity recovered from the HPLC column. […]

RAR/RXR heterodimers = test: F9-RARE-lacZ DR5 RARE reporter cell assay; details: linear part of the dose-response curve
Protocol: RARE and RXRE Activation Assay. […] The RA-responsive F9 cell line was transfected with a reporter construct of an RARE derived from the human retinoic acid receptor-β gene (RAR-β) placed upstream of the Escherichia coli lacZ gene. […] Cells were grown in L15-CO2 media containing N-3 supplements and antibiotics. […] After 24 h, cells were split into 24-well plates to ensure an equal number of transfected cells in each assay well. Cells were stimulated with appropriate concentrations of all-trans-RA, 9-cis-RA, or all-trans-DRA. After 48 h, the expression of β-galactosidase was assayed as described above.

LRAT = molecular target: T1, LRAT (Mus musculus, UniProt Q9JI60); test: Esterification assay, RPE microsomes and HEKK-LRAT cell homogenate; assay type: biochemical; details: 10 min, 37° C.
T1 construct: For expression Lrat coding region was amplified using the primers; expressed in transfected cells; membrane homogenate
T1 sequence (Q9JI60 1-231): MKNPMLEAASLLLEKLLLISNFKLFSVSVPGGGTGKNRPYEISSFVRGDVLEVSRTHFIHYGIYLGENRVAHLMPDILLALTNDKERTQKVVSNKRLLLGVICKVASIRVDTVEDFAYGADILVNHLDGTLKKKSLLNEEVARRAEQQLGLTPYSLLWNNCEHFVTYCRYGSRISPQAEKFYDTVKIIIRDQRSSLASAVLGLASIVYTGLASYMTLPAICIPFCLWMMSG
Excerpt: Inducible-Expression Of LRAT Protein in HEKK Cells. Mouse Lrat cDNA was cloned as described elsewhere. For expression Lrat coding region was amplified using the primers: 5′-[…]-3′ (SEQ ID NO: 11) and […] (SEQ ID NO: 12). The PCR product was ligated into the pCR-Blunt II-TOPO vector (Invitrogen) and then subcloned into the EcoRI site of pCDNA4/TO. TetR-expressing HEKK cells were transfected with the pCDNA4/TO-Lrat construct and selected with zeocin. Stable clones were verified for expression of Lrat protein using the anti-LRAT monoclonal antibody described elsewhere (2).
Esterification assay of all-trans-retinol and all-trans-13,14-dihydroretinol. HEKK-LRAT cells were homogenized in 250 mM sucrose, 10 mM Tris-HCl with the aid of a douncer. RPE microsomes were prepared as previously described. Stecher, et al. J Biol Chem 274:8577-8585, 1999. A substrate solution, 2 μL of 1 mM stock in DMF, was added to a 1.5 ml Eppendorf tube containing 20 μL of 10% BSA and 20 μL of UV-treated RPE microsomes or 100 μL of membrane homogenate of HEKK-LRAT cells and 10 mM BTP (pH 7.5) buffer to a total volume of 200 μL. […] Then 100 μL of the hexane extract was analyzed by normal-phase HPLC, using first 0.5% ethyl acetate in hexane for 10 min to separate retinyl esters and then 20% ethyl acetate in hexane for an additional 10 min to separate retinols. Elution was monitored at 290 nm and 325 nm.

Structure (SMILES)	Level in liver after gavage with all-trans-DROL [1]	Fold less effective than all-trans-RA in activating DR5-response elements (RAR/RXR heterodimers)	Esterification by LRAT (substrate activity) (LRAT)
CC1=C(/C=C/C(C)=C/C=C/C(C)CC(=O)O)C(C)(C)CCC1 (stereo not drawn) [all-trans-DRA, all-trans-13,14-dihydroretinoic acid]	significant levels	about 100 fold	–
CC1=C(/C=C/C(C)=C/C=C/C(C)CCO)C(C)(C)CCC1 (stereo not drawn) [all-trans-DROL, all-trans-13,14-dihydroretinol]	–	–	as good a substrate for LRAT as all-trans-retinol
